From ChEMBL document CHEMBL3885861, “Open TG-GATES”
“And” between values parts separate entries of the source, which are not always exact repeats. Equal values may be shown once.

Species: Rattus norvegicus
Assay: Open TG-GATES - Regimen: Single
Format: toxicity, organism-based, Sprague-Dawley
Design: regimen Single, gender Male, age 6 weeks
Settings: in vivo, po, 0 mg/kg, route gavage, dose level Control; for APTT / Bas / Eos / Fbg / Hb / Ht / Lym / MCH / MCHC / MCV / Mono / Neu / PT / Plat / RBC / Ret / WBC: tissue Blood; for KIDNEY_L / KIDNEY_R / KIDNEY_TOTAL: tissue Kidney; for LIVER: tissue Liver

In the case of `O=C1CN(/N=C/c2ccc([N+](=O)[O-])o2)C(=O)N1` [NITROFURANTOIN], the TERMINAL_BW (3 h) is reported as 220.5 g and 212 g, the APTT (3 h) is reported as 20.2 s and 16.2 s and the Bas (3 h) is reported as 0%. The Eos (3 h) was 0.8% and 1.4%, the Fbg (3 h) was 213.2 mg/dL and 223.8 mg/dL and the Hb (3 h) was 13.3 g/dL and 12.9 g/dL. For the same molecule, the Ht (3 h) was 37.7% and 38.8%, the Lym (3 h) was 79.2% and 74% and the MCH (3 h) was 21.5 pg. For the same molecule, the MCHC (3 h) was 35.3% and 33.1%, the MCV (3 h) was 60.7 fL and 64.8 fL and the Mono (3 h) was 2% and 5%. For the same molecule, the Neu (3 h) was 16.4% and 20.2%, the PT (3 h) was 12.9 s and 12 s and the Plat (3 h) was 112.1 x10_4/uL and 122.4 x10_4/uL. For the same molecule, the RBC (3 h) was 620.6 x10_4/ul and 599.8 x10_4/ul, the Ret (3 h) was 7.4% and 6.9% and the WBC (3 h) was 98.8 x10_2/uL and 73.8 x10_2/uL. The KIDNEY_L (3 h) was 1 g and 0.9 g, the KIDNEY_R (3 h) was 1 g and 0.9 g and the KIDNEY_TOTAL (3 h) was 2 g and 1.9 g. For the same molecule, the LIVER (3 h) was 10.4 g and 9.4 g, the A/G (3 h, tissue Plasma) was 1.7 and 2.2 and the ALP (3 h, tissue Plasma) was 989 IU/L and 1656.4 IU/L. The ALT (3 h, tissue Plasma) was 38.8 IU/L and 39.2 IU/L, the AST (3 h, tissue Plasma) was 67.6 IU/L and 66.6 IU/L and the BUN (3 h, tissue Plasma) was 11.6 mg/dL and 13 mg/dL. The CRE (3 h, tissue Plasma) was 0.4 mg/dL and 0.3 mg/dL, the Ca (3 h, tissue Plasma) was 10.8 mg/dL and 11.1 mg/dL and the Cl (3 h, tissue Plasma) was 101.6 meq/L and 104 meq/L. The GLC (3 h, tissue Plasma) was 190.2 mg/dL and 202 mg/dL, the IP (3 h, tissue Plasma) was 8.4 mg/dL and 9.1 mg/dL and the K (3 h, tissue Plasma) was 4 meq/L and 4.5 meq/L. The LDH (3 h, tissue Plasma) was 180.2 IU/L and 74.6 IU/L, the Na (3 h, tissue Plasma) was 140.6 meq/L and 139.2 meq/L and the PL (3 h, tissue Plasma) was 135.4 mg/dL and 141.2 mg/dL. For the same molecule, the RALB (3 h, tissue Plasma) was 3.5 g/dL and 3.8 g/dL, the TC (3 h, tissue Plasma) was 73.4 mg/dL and 84.8 mg/dL and the TG (3 h, tissue Plasma) was 80.2 mg/dL and 53 mg/dL. The TP (3 h, tissue Plasma) was 5.6 g/dL and 5.5 g/dL, the gamma-GTP (3 h, tissue Plasma) was 1 IU/L and the TERMINAL_BW (6 h) was 219 g and 212.6 g. The APTT (6 h) was 19.5 s and 16.2 s, the Bas (6 h) was 0% and the Eos (6 h) was 1%. The Fbg (6 h) was 221.8 mg/dL and 224 mg/dL, the Hb (6 h) was 12.9 g/dL and 12.6 g/dL and the Ht (6 h) was 36.6% and 38.1%. The Lym (6 h) was 75.4% and 75.2%, the MCH (6 h) was 21.8 pg and 21 pg and the MCHC (6 h) was 35.4% and 33.1%. The MCV (6 h) was 61.6 fL and 63.7 fL, the Mono (6 h) was 3.4% and 6.6% and the Neu (6 h) was 18.8% and 17.2%. For the same molecule, the PT (6 h) was 12.7 s and 12 s, the Plat (6 h) was 108.3 x10_4/uL and 124 x10_4/uL and the RBC (6 h) was 594.4 x10_4/ul and 598.8 x10_4/ul. For the same molecule, the Ret (6 h) was 7.9% and 7.7%, the WBC (6 h) was 107.6 x10_2/uL and 78.5 x10_2/uL and the KIDNEY_L (6 h) was 1 g and 0.9 g. The KIDNEY_R (6 h) was 1 g, the KIDNEY_TOTAL (6 h) was 2 g and 1.9 g and the LIVER (6 h) was 9.8 g. For the same molecule, the A/G (6 h, tissue Plasma) was 1.5 and 2.3, the ALP (6 h, tissue Plasma) was 798.6 IU/L and 1341.4 IU/L and the ALT (6 h, tissue Plasma) was 34.4 IU/L and 35.2 IU/L. The AST (6 h, tissue Plasma) was 61 IU/L and 65.8 IU/L, the BUN (6 h, tissue Plasma) was 12 mg/dL and 14.8 mg/dL and the CRE (6 h, tissue Plasma) was 0.4 mg/dL. The Ca (6 h, tissue Plasma) was 10.8 mg/dL and 10.9 mg/dL, the Cl (6 h, tissue Plasma) was 102.4 meq/L and 103.8 meq/L and the GLC (6 h, tissue Plasma) was 185.8 mg/dL and 193.2 mg/dL. The IP (6 h, tissue Plasma) was 8.6 mg/dL and 7.9 mg/dL, the K (6 h, tissue Plasma) was 4.2 meq/L and 4.6 meq/L and the LDH (6 h, tissue Plasma) was 177 IU/L and 74.4 IU/L. The Na (6 h, tissue Plasma) was 140.4 meq/L and 137.2 meq/L, the PL (6 h, tissue Plasma) was 137.2 mg/dL and 147 mg/dL and the RALB (6 h, tissue Plasma) was 3.2 g/dL and 3.8 g/dL. The TC (6 h, tissue Plasma) was 80 mg/dL and 86 mg/dL, the TG (6 h, tissue Plasma) was 54 mg/dL and 118.6 mg/dL and the TP (6 h, tissue Plasma) was 5.4 g/dL. For the same molecule, the gamma-GTP (6 h, tissue Plasma) was 1 IU/L and 0.4 IU/L, the TERMINAL_BW (9 h) was 214.5 g and 212 g and the APTT (9 h) was 19.4 s and 16 s. For the same molecule, the Bas (9 h) was 0%, the Eos (9 h) was 1% and the Fbg (9 h) was 216.6 mg/dL and 235.2 mg/dL. For the same molecule, the Hb (9 h) was 13.5 g/dL and 12.9 g/dL, the Ht (9 h) was 38.4% and 39.4% and the Lym (9 h) was 77.2% and 72%. The MCH (9 h) was 21.4 pg and 21.3 pg, the MCHC (9 h) was 35.3% and 32.7% and the MCV (9 h) was 60.8 fL and 64.9 fL. For the same molecule, the Mono (9 h) was 2.8% and 8.8%, the Neu (9 h) was 18.2% and 18.4% and the PT (9 h) was 12.7 s and 11.8 s. For the same molecule, the Plat (9 h) was 113.7 x10_4/uL and 107.9 x10_4/uL, the RBC (9 h) was 633.4 x10_4/ul and 606 x10_4/ul and the Ret (9 h) was 7.1%. For the same molecule, the WBC (9 h) was 86.1 x10_2/uL and 82.1 x10_2/uL, the KIDNEY_L (9 h) was 1 g and 0.9 g and the KIDNEY_R (9 h) was 1 g and 0.9 g. The KIDNEY_TOTAL (9 h) was 2 g and 1.8 g, the LIVER (9 h) was 9.3 g and 10.4 g and the A/G (9 h, tissue Plasma) was 1.6 and 2.2. For the same molecule, the ALP (9 h, tissue Plasma) was 901.6 IU/L and 1778 IU/L, the ALT (9 h, tissue Plasma) was 34.4 IU/L and 40.2 IU/L and the AST (9 h, tissue Plasma) was 62.2 IU/L and 71 IU/L. The BUN (9 h, tissue Plasma) was 11.6 mg/dL and 14.6 mg/dL, the CRE (9 h, tissue Plasma) was 0.4 mg/dL and 0.3 mg/dL and the Ca (9 h, tissue Plasma) was 10.6 mg/dL and 11.3 mg/dL. For the same molecule, the Cl (9 h, tissue Plasma) was 102.2 meq/L and 104.4 meq/L, the GLC (9 h, tissue Plasma) was 194 mg/dL and 183.2 mg/dL and the IP (9 h, tissue Plasma) was 9.3 mg/dL and 7.7 mg/dL. For the same molecule, the K (9 h, tissue Plasma) was 4 meq/L and 4.9 meq/L, the LDH (9 h, tissue Plasma) was 211.8 IU/L and 71.2 IU/L and the Na (9 h, tissue Plasma) was 140.2 meq/L and 137.2 meq/L. For the same molecule, the PL (9 h, tissue Plasma) was 143.8 mg/dL and 168 mg/dL, the RALB (9 h, tissue Plasma) was 3.3 g/dL and 3.9 g/dL and the TBIL (9 h, tissue Plasma) was 0.1 mg/dL and 0.038 mg/dL. For the same molecule, the TC (9 h, tissue Plasma) was 78.8 mg/dL and 100.6 mg/dL, the TG (9 h, tissue Plasma) was 77.2 mg/dL and 109.6 mg/dL and the TP (9 h, tissue Plasma) was 5.3 g/dL and 5.6 g/dL. For the same molecule, the gamma-GTP (9 h, tissue Plasma) was 0.6 IU/L and 1 IU/L, the TERMINAL_BW (24 h) was 232.8 g and 218.4 g and the APTT (24 h) was 19 s and 15.6 s. For the same molecule, the Bas (24 h) was 0%, the Eos (24 h) was 1% and the Fbg (24 h) was 219.8 mg/dL and 239.4 mg/dL. For the same molecule, the Hb (24 h) was 13.6 g/dL and 13.4 g/dL, the Ht (24 h) was 39.2% and 40.4% and the Lym (24 h) was 75.2% and 73%. For the same molecule, the MCH (24 h) was 22 pg and 21.7 pg, the MCHC (24 h) was 34.9% and 33.3% and the MCV (24 h) was 63.2 fL and 65.2 fL. For the same molecule, the Mono (24 h) was 3% and 10.2%, the Neu (24 h) was 19.6% and 15.6% and the PT (24 h) was 12.5 s and 11.7 s. For the same molecule, the Plat (24 h) was 119.5 x10_4/uL and 120.8 x10_4/uL, the RBC (24 h) was 620.4 x10_4/ul and 619 x10_4/ul and the Ret (24 h) was 7% and 6.5%. The WBC (24 h) was 95.9 x10_2/uL and 73.9 x10_2/uL, the KIDNEY_L (24 h) was 1 g and the KIDNEY_R (24 h) was 1.1 g and 1 g. For the same molecule, the KIDNEY_TOTAL (24 h) was 2.1 g and 2 g, the LIVER (24 h) was 11.1 g and 10.1 g and the A/G (24 h, tissue Plasma) was 1.4 and 2.4. The ALP (24 h, tissue Plasma) was 1022.4 IU/L and 1561.4 IU/L.
